Laboratory results from patent US11872224B2, “Amorphous solid dispersion formulation” (TaiGen Biotechnology Co., Ltd., priority 2020, dated 2024).
Values after ≈ are worked out from the molar mass of the structure shown.

Assay: Dissolution assessment: solubility in FaSSIF
Type: physicochemical
Settings: FaSSIF pH 6.5, 37° C., 600 rpm, target concentration 1.0 mg/mL
Protocol: An amount of Compound A (about 6 mg) and an amorphous solid dispersion (equivalent to around 6 mg Compound A) were weighed into separate 8 ml bottle, and 6 ml FaSSIF (Fasted state simulated intestinal fluid) was added (target concentration 1.0 mg/mL). The suspensions were stirred using a thermomixer at 37° C. under 600 rpm and 200 μL of suspensions were withdrawn at pre-set time intervals (such as 5 min) and then centrifuged at 14000 rpm for 4 min. Then, 100 μL of supernatant was diluted with 500 μL ACN (Acetonitrile) to prevent precipitation, and was analyzed by HPLC.
FaSSIF was prepared by following steps: 1) Place 0.1024 g sodium hydroxide, 0.7518 g sodium dihydrogen phosphate anhydrous and 1.5470 g sodium chloride in a 250 mL volumetric flask, add about 225 mL water, and adjust the pH to 6.5 with 1 N sodium hydroxide or 1N hydrochloric acid. Make up to volume (250 mL) with pure water. 2) Place and dissolve 0.4480 g SIF Powder Original with 100 mL of buffer (from step 1) in a 200 mL volumetric flask, add water to volume and mix well.

Solubility 5 min (5 min): 4.95 µg/mL (≈ 9.16 µM)
Solubility 15 min (15 min): 4.89 µg/mL (≈ 9.05 µM)
Structure (SMILES): COC(=O)OCOc1c2n(ccc1=O)N([C@H]1c3ccccc3CSc3c1ccc(F)c3F)CC1(CC1)C2=O [Sample 1, [1-((11S)-7,8-difluoro(6H,11H-dibenzo[c,f]thiepin-11-yl))-4,6-dioxospiro[1,2,3,9-tetrahydropyridino[1,2-e]pyridazine-3,1′-cyclopropane]-5-yloxy]methyl methoxyformate]
